# Measurements: PubChem BioAssay (NCI)
#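 1) Cells in 96-well plates. 2) Compound, 48 h, 5 concentrations. 3) Linear interpolation between surrounding doses. 4) Unreached endpoint = highest concentration. The concentration for full growth arrest is given as TGI.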 Where a SMILES comes first, the peptide text is derived from it. The star is where a group is joined. OSu = O=C1CCC(=O)N1O*
# Tested on: HS 578T breast
# Experiment: DTP human tumour cell line panel, 48 h
row,SMILES,TGI [µM]
1,Cc1ccc(-[n+]2cc([O-])on2)cc1,> 100
2,C(=C/CCCN1O[C@@H](CCCCCCCCc2cccnc2)[C@H]2CCC[C@H]21)/CCCCCCCCCc1cccnc1,> 100
3,NCCCCC(NC(=O)C(N)Cc1ccc(O)cc1)C(=O)NC(CCCCN)C(=O)NC(CCCCN)C(=O)ON1C(=O)CCC1=O (stereo unspecified) (H-YKKK-OSu; configuration not given here),> 100
4,Cc1ccc(S(=O)(=O)N2CC2CCCCC=O)cc1 (stereo unspecified),> 100
5,NC(N)=NS(=O)(=O)c1ccc(N=Nc2c(O)c(C(=O)O)cc3ccccc23)cc1,> 100

# Tested on: HT29 colon
# Experiment: DTP human tumour cell line panel, 48 h
row,SMILES,TGI [µM]
1,C=C(C)C12OC1[C@@]1(C)C(=CC2=O)CCC(O)[C@@H]1C (stereo partly specified),3.89
2,CCOC(=O)c1nnn(CCCCO)c1C(=O)OCC,> 100
3,Cc1ccc(-[n+]2cc([O-])on2)cc1,> 100
4,C(=C/CCCN1O[C@@H](CCCCCCCCc2cccnc2)[C@H]2CCC[C@H]21)/CCCCCCCCCc1cccnc1,61.1
5,NCCCCC(NC(=O)C(N)Cc1ccc(O)cc1)C(=O)NC(CCCCN)C(=O)NC(CCCCN)C(=O)ON1C(=O)CCC1=O (stereo unspecified) (H-YKKK-OSu; configuration not given here),> 100
6,Cc1ccc(S(=O)(=O)N2CC2CCCCC=O)cc1 (stereo unspecified),> 100
7,NC(N)=NS(=O)(=O)c1ccc(N=Nc2c(O)c(C(=O)O)cc3ccccc23)cc1,> 100

# Tested on: HOP-92 NSCLC
# Experiment: DTP human tumour cell line panel, 48 h
row,SMILES,TGI [µM]
1,C=C(C)C12OC1[C@@]1(C)C(=CC2=O)CCC(O)[C@@H]1C (stereo partly specified),93.9
2,CCOC(=O)c1nnn(CCCCO)c1C(=O)OCC,> 100
3,Cc1ccc(-[n+]2cc([O-])on2)cc1,> 100
4,C(=C/CCCN1O[C@@H](CCCCCCCCc2cccnc2)[C@H]2CCC[C@H]21)/CCCCCCCCCc1cccnc1,28.1
5,NCCCCC(NC(=O)C(N)Cc1ccc(O)cc1)C(=O)NC(CCCCN)C(=O)NC(CCCCN)C(=O)ON1C(=O)CCC1=O (stereo unspecified) (H-YKKK-OSu; configuration not given here),> 100
6,Cc1ccc(S(=O)(=O)N2CC2CCCCC=O)cc1 (stereo unspecified),> 100
7,NC(N)=NS(=O)(=O)c1ccc(N=Nc2c(O)c(C(=O)O)cc3ccccc23)cc1,> 100

# Tested on: DU-145 prostate
# Experiment: DTP human tumour cell line panel, 48 h
row,SMILES,TGI [µM]
1,C=C(C)C12OC1[C@@]1(C)C(=CC2=O)CCC(O)[C@@H]1C (stereo partly specified),33.1
2,CCOC(=O)c1nnn(CCCCO)c1C(=O)OCC,> 100
3,Cc1ccc(-[n+]2cc([O-])on2)cc1,> 100
4,C(=C/CCCN1O[C@@H](CCCCCCCCc2cccnc2)[C@H]2CCC[C@H]21)/CCCCCCCCCc1cccnc1,> 100
5,Cc1ccc(S(=O)(=O)N2CC2CCCCC=O)cc1 (stereo unspecified),> 100
6,NC(N)=NS(=O)(=O)c1ccc(N=Nc2c(O)c(C(=O)O)cc3ccccc23)cc1,> 100

# Tested on: MDA-N
# Experiment: DTP human tumour cell line panel, 48 h
row,SMILES,TGI [µM]
1,C=C(C)C12OC1[C@@]1(C)C(=CC2=O)CCC(O)[C@@H]1C (stereo partly specified),17.3
2,CCOC(=O)c1nnn(CCCCO)c1C(=O)OCC,> 100
3,Cc1ccc(-[n+]2cc([O-])on2)cc1,> 100
4,C(=C/CCCN1O[C@@H](CCCCCCCCc2cccnc2)[C@H]2CCC[C@H]21)/CCCCCCCCCc1cccnc1,71.9
5,NCCCCC(NC(=O)C(N)Cc1ccc(O)cc1)C(=O)NC(CCCCN)C(=O)NC(CCCCN)C(=O)ON1C(=O)CCC1=O (stereo unspecified) (H-YKKK-OSu; configuration not given here),> 100
6,Cc1ccc(S(=O)(=O)N2CC2CCCCC=O)cc1 (stereo unspecified),> 100
7,NC(N)=NS(=O)(=O)c1ccc(N=Nc2c(O)c(C(=O)O)cc3ccccc23)cc1,> 100

# Tested on: A549 NSCLC
# Experiment: DTP human tumour cell line panel, 48 h
row,SMILES,TGI [µM]
1,C=C(C)C12OC1[C@@]1(C)C(=CC2=O)CCC(O)[C@@H]1C (stereo partly specified),20.3
2,CCOC(=O)c1nnn(CCCCO)c1C(=O)OCC,> 100
3,Cc1ccc(-[n+]2cc([O-])on2)cc1,> 100
4,C(=C/CCCN1O[C@@H](CCCCCCCCc2cccnc2)[C@H]2CCC[C@H]21)/CCCCCCCCCc1cccnc1,47.2
5,NCCCCC(NC(=O)C(N)Cc1ccc(O)cc1)C(=O)NC(CCCCN)C(=O)NC(CCCCN)C(=O)ON1C(=O)CCC1=O (stereo unspecified) (H-YKKK-OSu; configuration not given here),> 100
6,Cc1ccc(S(=O)(=O)N2CC2CCCCC=O)cc1 (stereo unspecified),> 100
7,NC(N)=NS(=O)(=O)c1ccc(N=Nc2c(O)c(C(=O)O)cc3ccccc23)cc1,> 100

# Tested on: SR leukemia
# Experiment: DTP human tumour cell line panel, 48 h
row,SMILES,TGI [µM]
1,C=C(C)C12OC1[C@@]1(C)C(=CC2=O)CCC(O)[C@@H]1C (stereo partly specified),11.3
2,CCOC(=O)c1nnn(CCCCO)c1C(=O)OCC,> 100
3,Cc1ccc(-[n+]2cc([O-])on2)cc1,> 100
4,C(=C/CCCN1O[C@@H](CCCCCCCCc2cccnc2)[C@H]2CCC[C@H]21)/CCCCCCCCCc1cccnc1,51.5
5,NCCCCC(NC(=O)C(N)Cc1ccc(O)cc1)C(=O)NC(CCCCN)C(=O)NC(CCCCN)C(=O)ON1C(=O)CCC1=O (stereo unspecified) (H-YKKK-OSu; configuration not given here),> 100
6,Cc1ccc(S(=O)(=O)N2CC2CCCCC=O)cc1 (stereo unspecified),37.2
7,NC(N)=NS(=O)(=O)c1ccc(N=Nc2c(O)c(C(=O)O)cc3ccccc23)cc1,> 100
